The values that follow come from patent publication US20090238852A1, “METHODS FOR CONTROLLING INTRACELLULAR CALCIUM LEVELS ASSOCIATED WITH AN ISCHEMIC EVENT” (University of Utah Research Foundation, priority 2008, published 2009).

The test system of test [1] is platelets with HIT antibody. The test is described as follows: Serotonin release assay (SRA) with HIT-positive serum. The note with it: ODSH added with heparin to the HIT antibody.
Experimental: Two techniques were employed to measure platelet activation in response to heparin or 2-O desulfated heparin in the presence of HIT-reactive serum.
The first technique was the serotonin release assay (SRA), considered the gold standard laboratory test for HIT, and performed as described by Sheridan (Sheridan D, et al. Blood 67:27-30, 1986). Washed platelets were loaded with ^14C serotonin (^14C-hydroxy-tryptamine-creatine sulfate, Amersham), and then incubated with various concentrations of test heparin or heparin analog in the presence of serum from known HIT-positive patients as a source of antibody. Activation was assessed as ^14C serotonin release from platelets during activation, with ^14C serotonin quantitated using a liquid scintillation counter. […] Activated platelets are defined as percent isotope release of ≧20%.
The initial 3 ml (milliliters) of whole blood in the first syringe was discarded. The anticoagulated blood was centrifuged (80×g (gravity), 15 min, room temperature) to obtain platelet rich plasma (PRP). […] EDTA was added to stop the reaction, and the mixture was centrifuged to pellet the platelets. ^14C-serotonin released into the supernatant was measured on a scintillation counter. Maximal release was measured following platelet lysis with 10% Triton X-100. […]
The test system of test [2] is myeloperoxidase (MPO) activity. The test is described as follows: Porcine ischemia/reperfusion model: myeloperoxidase activity in myocardium. Format: in vivo, pig. The settings on record: ODSH 45 mg/kg; FIG. 11. The text has this:
Arterial access was achieved via bilateral femoral artery cut-downs for the insertion of 8F sheaths. Central venous and carotid access was achieved via a neck incision to expose the external jugular vein and common carotid artery. Animals were then anticoagulated with 50 U/kg of unfractionated heparin to maintain an activated clotting time (ACT) between 250-350 seconds, prior to ischemia. A 7-8 Fr pigtail catheter was placed in the left ventricular cavity to measure pressure and for injection of 15 μneutron-activated microspheres. […] Baseline cardiodynamic and hemodynamic data were measured using a solid state transducer-tipped catheter in the left ventricle (Millar Instruments, Houston, Tex.) to measure left ventricular pressure, and a fluid-filled transducer connected to the side port of the femoral artery sheath to measure peripheral arterial pressure. Approximately 3-4 million neutron-activated microspheres (BioPhysics Assay Laboratory, Inc, Worcester, Ma) (15 μm) were delivered through a pig-tail catheter into the left ventricle over a 30 second period, to quantify regional myocardial blood flow (RMBF). […] Balloon occlusion time was 75 minutes with coronary occlusion confirmed by contrast angiography, ST segment changes on electrocardiography, and quantitatively confirmed by microspheres delivered at the end of ischemia, as described above. […]

Test [3] concerns rabbit ventricular myocytes. As to the kind of experiment: Intracellular sodium [Na^+]i in ventricular myocytes during PMI, Sodium Green flow cytometry. Format: cell-based. The settings on record: PMI + ODSH 100 μg/mL; n = 7; PMI alone 11.16 ± 0.90, Hepes 6.04 ± 0.25. On the procedure: In these studies, intracellular calcium concentration [Ca^++]i was measured by flow cytometry. Measurement of isolated mouse and rabbit ventricular myocyte [Ca^2+]i and [Na^+]i by flow cytometry has been described (Zhang et al., J. Cardiovasc. Pharmacol. 51: 443-449 (2008); Li et al., J. Mol. Cell. Cardiol. 33: 2145-2155 (2001)). [Ca^++]i was measured with the Ca^++ sensitive fluorescent probe, Fluo 3-AM (Molecular Probes, Eugene, Oreg.), using a FACScan (Becton-Dickinson, MA). The cells were exposed to 4 μmol/L Fluo-3 AM for 30 min at 37° C. The cells were then separated into aliquots. After 40 min of wash, the cells were exposed to paced metabolic ischemia (MI) for 45 min at 37° C. Metabolic ischemia was accomplished by incubating cells in a glucose-free MKRBB solution (pH 7.40) containing 2 mmol/L sodium cyanide (NaCN) to impair mitochondrial and glycolytic generation of ATP. […] Approximately 2×10^3 myocytes were analyzed to calculate average emission fluorescence intensity in each sample. […] Only those cells with low fluorescence intensity at 670 nm (PI-negative cells or viable cells) were included in the comparative analysis of [Ca^++]i. The sample [Ca^2+]i values were calculated by Mn^2+ quenching (Sugishita et al, 2001) and [Na^+]i values by comparison with a standard curve of varied [Na^+]i versus Na Green fluorescence. […] Results were expressed as means±SEM. […]

Take 2-O, 3-O desulfated heparin [ODSH]: the “effect on heparin-induced platelet activation” value in test [1] is on record as “prevented heparin from causing platelet activation”. In test [2], the “MPO activity in ischemic-reperfused myocardium” value is on record as “significantly reduced”. In addition, in test [3], the [Na^+]i was determined as 7.85 ± 0.45 mM.
